pIC50: −log10 of the molar value.
Assays:
SST5 = target: T1, SST5 (Homo sapiens, UniProt P35346); experiment: FLIPR functional screen; assay type: cell-based; settings: antagonist mode
T1 construct: Millipore

GIPR = target: T2, GIPR (Homo sapiens, UniProt P48546); experiment: FLIPR functional screen; assay type: cell-based; settings: antagonist mode
T2 construct: Millipore

5-HT1A = target: T3, 5-HT1A (Homo sapiens, UniProt P08908); experiment: FLIPR functional screen; assay type: cell-based; settings: antagonist mode
T3 construct: purchased Millipore (outsourced screen)

NTR1 = target: T4, NTR1 (Homo sapiens, UniProt P30989); experiment: FLIPR functional screen; assay type: cell-based; settings: antagonist mode
T4 construct: Millipore

PAR2 = target: T5, PAR2 (Homo sapiens, UniProt P55085); experiment: FLIPR functional screen; assay type: cell-based; settings: antagonist mode
T5 construct: Millipore

GNRHR = target: T6, GNRHR (Homo sapiens, UniProt P30968); experiment: FLIPR functional screen; assay type: cell-based; settings: antagonist mode
T6 construct: Millipore

CCR2B = target: T7, CCR2B (Homo sapiens, UniProt P41597); experiment: FLIPR functional screen; assay type: cell-based; settings: antagonist mode
T7 construct: Millipore

CCR6 = target: T8, CCR6 (Homo sapiens, UniProt P51684); experiment: FLIPR functional screen; assay type: cell-based; settings: antagonist mode
T8 construct: Millipore

BLT1 = target: T9, BLT1 (Homo sapiens, UniProt Q15722); experiment: FLIPR functional screen; assay type: cell-based; settings: antagonist mode
T9 construct: Millipore

A2B = target: T10, A2B (Homo sapiens, UniProt P29275); experiment: FLIPR functional screen; assay type: cell-based; settings: antagonist mode
T10 construct: purchased Millipore (outsourced screen)

NK1 = target: T11, NK1 (Homo sapiens, UniProt P25103); experiment: FLIPR functional screen; assay type: cell-based; settings: antagonist mode
T11 construct: Millipore

A1 = target: T12, A1 (Homo sapiens, UniProt P30542); experiment: FLIPR functional screen; assay type: cell-based; settings: antagonist mode
T12 construct: purchased Millipore (outsourced screen)

Prostanoid EP4 = target: T13, Prostanoid EP4 (Homo sapiens, UniProt P35408); experiment: Competitive radioligand binding (MDS Pharma)
T13 construct: host or cells: EP4-expressing membrane preparations
Experimental: Radioligand EP4 binding. The radioligand EP4 binding assay measures displacement of radiolabelled PGE2 from EP4-expressing membrane preparations. Radioligand EP4 binding assay kit was purchased from Millipore, and the assay was performed according to instructions of the manufacture.

CCK1 = target: T14, CCK1 (Homo sapiens, UniProt P32238); experiment: FLIPR functional screen; assay type: cell-based; settings: antagonist mode
T14 construct: Millipore

CXCR2 = target: T15, CXCR2 (Homo sapiens, UniProt P25025); experiment: FLIPR functional screen; assay type: cell-based; settings: antagonist mode
T15 construct: Millipore

FPR2 = target: T16, FPR2 (Homo sapiens, UniProt P25090); experiment: FLIPR functional screen; assay type: cell-based; settings: antagonist mode
T16 construct: Millipore

5-HT2A = target: T17, 5-HT2A (Homo sapiens, UniProt P28223); experiment: FLIPR functional screen; assay type: cell-based; settings: antagonist mode
T17 construct: purchased Millipore (outsourced screen)

ETA = target: T18, ETA (Homo sapiens, UniProt P25101); experiment: FLIPR functional screen; assay type: cell-based; settings: antagonist mode
T18 construct: Millipore

5-HT1B = target: T19, 5-HT1B (Homo sapiens, UniProt P28222); experiment: FLIPR functional screen; assay type: cell-based; settings: antagonist mode
T19 construct: purchased Millipore (outsourced screen)

GPR40 = target: T20, GPR40 (Homo sapiens, UniProt O14842); experiment: FLIPR functional screen; assay type: cell-based; settings: antagonist mode
T20 construct: Millipore

LPA1 = target: T21, LPA1 (Homo sapiens, UniProt Q92633); experiment: FLIPR functional screen; assay type: cell-based; settings: antagonist mode
T21 construct: Millipore

CYSLT1 = target: T22, CYSLT1 (Homo sapiens, UniProt Q9Y271); experiment: FLIPR functional screen; assay type: cell-based; settings: antagonist mode
T22 construct: Millipore

OT = target: T23, OT (Homo sapiens, UniProt P30559); experiment: FLIPR functional screen; assay type: cell-based; settings: antagonist mode
T23 construct: Millipore

Mouse CD4+ T cells = experiment: IL-23 induced Th17 expansion; assay type: cell-based; settings: 120 h, anti-TCR/anti-CD28 mAb and IL-23 (30 ng/ml), 5 days, FACS, read-out: IC50 for reduction of IL-23-induced Th17-producing cells
Experimental: IL-23 induced Th17 expansion. CD4^+ T cells were isolated from C57BL/6 mice and activated with anti-TCR (1 μg/ml plate-bound) and anti-CD28 (2 μg/ml soluble) with or without IL-23 (30 ng/ml) for 5 days. IL-17 producing cells were analyzed by IL-17 intracellular staining as described by manufacture (BD).
The effect of ER-819924-01 on IL-23-induced Th17 expansion was studied in vitro (FIG. 9). Mouse CD4^+ T cells were cultured with anti-TCR/anti-CD28 mAb and IL-23 (30 ng/ml) in the presence or absence of ER-819924-01 or anti-PGE2 Ab for 5 days. IL-17 producing T cells were analyzed by FACS of intracellular staining. ER-819924-01 reduced the number of IL-23-induced Th17-producing cells with an IC50 value of ˜10-100 nM.

CB2 = target: T24, CB2 (Homo sapiens, UniProt P34972); experiment: FLIPR functional screen; assay type: cell-based; settings: antagonist mode
T24 construct: Millipore

ADRB2 = target: T25, ADRB2 (Homo sapiens, UniProt P07550); experiment: FLIPR functional screen; assay type: cell-based; settings: antagonist mode
T25 construct: purchased Millipore (outsourced screen)

CXCR1 = target: T26, CXCR1 (Homo sapiens, UniProt P25024); experiment: FLIPR functional screen; assay type: cell-based; settings: antagonist mode
T26 construct: Millipore

V1B = target: T27, V1B (Homo sapiens, UniProt P47901); experiment: FLIPR functional screen; assay type: cell-based; settings: antagonist mode
T27 construct: Millipore

ADRB1 = target: T28, ADRB1 (Homo sapiens, UniProt P08588); experiment: FLIPR functional screen; assay type: cell-based; settings: antagonist mode
T28 construct: purchased Millipore (outsourced screen)

Prostanoid CRTH2 = target: T29, Prostanoid CRTH2 (Homo sapiens, UniProt Q9Y5Y4); experiment: Competitive radioligand binding (MDS Pharma)
T29 construct: purchased MDS Pharma (outsourced assay)

M1 = target: T30, M1 (Homo sapiens, UniProt P11229); experiment: FLIPR functional screen; assay type: cell-based; settings: antagonist mode
T30 construct: Millipore

S1P3 = target: T31, S1P3 (Homo sapiens, UniProt Q99500); experiment: FLIPR functional screen; assay type: cell-based; settings: antagonist mode
T31 construct: Millipore

IP1 = target: T32, IP1 (Homo sapiens, UniProt P43119); experiment: FLIPR functional screen; assay type: cell-based; settings: antagonist mode
T32 construct: Millipore

T13 sequence (P35408 whole entry): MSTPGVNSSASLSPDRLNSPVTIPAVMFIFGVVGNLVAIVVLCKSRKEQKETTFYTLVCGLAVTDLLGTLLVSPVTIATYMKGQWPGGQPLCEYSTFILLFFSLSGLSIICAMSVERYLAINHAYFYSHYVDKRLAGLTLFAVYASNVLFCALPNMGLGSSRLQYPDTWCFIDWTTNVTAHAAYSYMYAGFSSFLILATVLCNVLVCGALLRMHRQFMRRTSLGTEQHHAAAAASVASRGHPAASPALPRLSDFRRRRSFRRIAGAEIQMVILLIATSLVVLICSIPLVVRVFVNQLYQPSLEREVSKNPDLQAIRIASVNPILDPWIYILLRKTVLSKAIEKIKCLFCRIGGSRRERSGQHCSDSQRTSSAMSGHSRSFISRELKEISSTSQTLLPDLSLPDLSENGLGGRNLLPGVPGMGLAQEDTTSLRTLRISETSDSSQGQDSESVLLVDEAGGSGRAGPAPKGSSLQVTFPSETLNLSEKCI
T29 sequence (Q9Y5Y4 whole entry): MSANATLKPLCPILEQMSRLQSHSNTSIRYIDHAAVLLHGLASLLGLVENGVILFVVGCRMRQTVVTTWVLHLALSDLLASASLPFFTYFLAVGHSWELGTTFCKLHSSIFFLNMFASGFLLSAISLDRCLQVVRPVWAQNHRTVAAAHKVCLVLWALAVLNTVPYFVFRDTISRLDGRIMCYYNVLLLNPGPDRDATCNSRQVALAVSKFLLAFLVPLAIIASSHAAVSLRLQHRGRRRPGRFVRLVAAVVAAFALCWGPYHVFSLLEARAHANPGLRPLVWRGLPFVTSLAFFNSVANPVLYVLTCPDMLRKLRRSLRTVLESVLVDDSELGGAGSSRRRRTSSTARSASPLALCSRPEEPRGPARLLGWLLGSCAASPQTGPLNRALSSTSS
T11 sequence (P25103 whole entry): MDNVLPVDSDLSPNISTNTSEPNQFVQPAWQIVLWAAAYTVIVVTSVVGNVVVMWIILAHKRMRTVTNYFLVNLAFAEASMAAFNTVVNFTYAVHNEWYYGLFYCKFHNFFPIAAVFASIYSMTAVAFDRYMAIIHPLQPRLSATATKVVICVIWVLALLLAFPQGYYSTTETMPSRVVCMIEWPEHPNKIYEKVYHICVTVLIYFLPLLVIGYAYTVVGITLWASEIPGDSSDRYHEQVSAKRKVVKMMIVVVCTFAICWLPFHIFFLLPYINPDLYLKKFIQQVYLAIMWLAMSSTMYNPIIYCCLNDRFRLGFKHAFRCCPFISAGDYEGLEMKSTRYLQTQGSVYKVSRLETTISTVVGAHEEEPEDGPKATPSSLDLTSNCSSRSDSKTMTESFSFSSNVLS
T16 sequence (P25090 whole entry, species assumed): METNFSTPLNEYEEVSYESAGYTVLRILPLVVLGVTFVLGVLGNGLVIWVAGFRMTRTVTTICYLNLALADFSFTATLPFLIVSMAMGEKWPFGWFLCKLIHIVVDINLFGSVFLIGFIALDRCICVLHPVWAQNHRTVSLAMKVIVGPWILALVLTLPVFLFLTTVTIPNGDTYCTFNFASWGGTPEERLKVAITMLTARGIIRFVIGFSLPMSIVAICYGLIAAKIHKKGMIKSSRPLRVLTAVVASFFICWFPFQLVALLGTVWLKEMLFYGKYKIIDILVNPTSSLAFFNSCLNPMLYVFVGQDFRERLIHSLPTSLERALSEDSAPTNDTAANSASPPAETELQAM
T12 sequence (P30542 whole entry): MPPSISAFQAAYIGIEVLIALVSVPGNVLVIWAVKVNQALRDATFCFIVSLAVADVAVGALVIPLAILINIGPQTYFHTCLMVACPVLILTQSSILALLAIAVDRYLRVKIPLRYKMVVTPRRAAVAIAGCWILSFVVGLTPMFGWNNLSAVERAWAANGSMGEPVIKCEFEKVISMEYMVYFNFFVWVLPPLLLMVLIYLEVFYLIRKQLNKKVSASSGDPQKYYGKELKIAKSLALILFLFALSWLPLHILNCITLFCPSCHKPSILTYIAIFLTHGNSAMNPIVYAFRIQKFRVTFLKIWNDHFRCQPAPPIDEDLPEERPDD
T22 sequence (Q9Y271 whole entry, species assumed): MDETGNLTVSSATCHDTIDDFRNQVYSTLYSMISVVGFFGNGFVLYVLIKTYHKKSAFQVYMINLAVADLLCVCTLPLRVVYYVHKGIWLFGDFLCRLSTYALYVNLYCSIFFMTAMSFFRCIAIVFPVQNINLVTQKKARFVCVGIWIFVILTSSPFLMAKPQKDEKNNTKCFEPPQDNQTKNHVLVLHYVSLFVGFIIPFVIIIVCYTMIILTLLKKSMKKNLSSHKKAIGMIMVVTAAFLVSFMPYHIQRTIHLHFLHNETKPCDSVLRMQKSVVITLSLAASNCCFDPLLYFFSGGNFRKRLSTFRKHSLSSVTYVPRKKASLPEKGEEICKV
T17 sequence (P28223 whole entry): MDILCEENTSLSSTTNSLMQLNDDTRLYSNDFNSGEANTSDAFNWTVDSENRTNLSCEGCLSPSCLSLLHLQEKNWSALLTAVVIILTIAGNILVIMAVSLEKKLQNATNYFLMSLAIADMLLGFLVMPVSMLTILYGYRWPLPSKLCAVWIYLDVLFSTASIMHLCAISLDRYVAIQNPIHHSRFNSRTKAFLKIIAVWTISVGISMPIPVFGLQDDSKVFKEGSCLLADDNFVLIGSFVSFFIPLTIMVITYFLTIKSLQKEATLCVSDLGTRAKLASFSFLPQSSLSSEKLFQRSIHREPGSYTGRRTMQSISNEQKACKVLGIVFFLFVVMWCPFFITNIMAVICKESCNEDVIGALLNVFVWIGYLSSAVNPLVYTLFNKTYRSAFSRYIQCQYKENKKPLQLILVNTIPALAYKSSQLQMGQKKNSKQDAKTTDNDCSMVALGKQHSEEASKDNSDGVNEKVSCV
T26 sequence (P25024 whole entry, species assumed): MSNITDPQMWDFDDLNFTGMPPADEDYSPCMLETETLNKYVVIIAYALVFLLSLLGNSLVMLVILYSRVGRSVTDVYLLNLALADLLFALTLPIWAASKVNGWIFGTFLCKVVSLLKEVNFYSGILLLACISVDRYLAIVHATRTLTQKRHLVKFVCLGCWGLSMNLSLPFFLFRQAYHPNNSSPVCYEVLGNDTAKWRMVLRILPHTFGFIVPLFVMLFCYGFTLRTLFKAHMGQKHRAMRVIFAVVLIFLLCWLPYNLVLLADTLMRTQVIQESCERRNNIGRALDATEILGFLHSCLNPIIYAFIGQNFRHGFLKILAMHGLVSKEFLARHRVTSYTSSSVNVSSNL
T2 sequence (P48546 22-466, species assumed): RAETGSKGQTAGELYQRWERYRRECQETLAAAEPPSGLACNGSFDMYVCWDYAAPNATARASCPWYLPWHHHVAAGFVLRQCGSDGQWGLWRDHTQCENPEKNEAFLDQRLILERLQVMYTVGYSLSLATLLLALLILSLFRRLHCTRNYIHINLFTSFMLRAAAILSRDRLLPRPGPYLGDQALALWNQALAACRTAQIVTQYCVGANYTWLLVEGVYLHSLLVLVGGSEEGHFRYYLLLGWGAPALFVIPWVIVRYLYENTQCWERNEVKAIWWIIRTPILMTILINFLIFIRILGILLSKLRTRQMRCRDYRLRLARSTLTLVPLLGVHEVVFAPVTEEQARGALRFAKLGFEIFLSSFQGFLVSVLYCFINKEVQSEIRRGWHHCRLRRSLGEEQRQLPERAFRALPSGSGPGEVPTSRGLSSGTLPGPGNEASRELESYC
T31 sequence (Q99500 whole entry, species assumed): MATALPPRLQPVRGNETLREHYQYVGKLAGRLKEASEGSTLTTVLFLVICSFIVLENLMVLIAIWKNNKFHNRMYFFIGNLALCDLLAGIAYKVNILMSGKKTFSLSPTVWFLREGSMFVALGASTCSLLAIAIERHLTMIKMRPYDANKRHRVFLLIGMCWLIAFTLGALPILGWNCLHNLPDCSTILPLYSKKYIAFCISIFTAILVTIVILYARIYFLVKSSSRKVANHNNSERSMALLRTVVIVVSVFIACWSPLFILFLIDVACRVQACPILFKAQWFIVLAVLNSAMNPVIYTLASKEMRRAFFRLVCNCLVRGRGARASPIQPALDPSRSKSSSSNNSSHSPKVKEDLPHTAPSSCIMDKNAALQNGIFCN
T9 sequence (Q15722 whole entry, species assumed): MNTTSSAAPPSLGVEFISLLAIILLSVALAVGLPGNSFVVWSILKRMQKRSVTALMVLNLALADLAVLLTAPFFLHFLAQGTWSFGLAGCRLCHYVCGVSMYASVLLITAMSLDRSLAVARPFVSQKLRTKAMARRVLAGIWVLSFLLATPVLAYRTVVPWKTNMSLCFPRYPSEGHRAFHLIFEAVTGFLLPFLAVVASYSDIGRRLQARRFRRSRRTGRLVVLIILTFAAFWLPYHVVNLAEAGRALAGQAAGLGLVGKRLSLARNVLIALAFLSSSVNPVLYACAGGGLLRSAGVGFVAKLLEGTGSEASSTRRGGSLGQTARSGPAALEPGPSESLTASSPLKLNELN
T5 sequence (P55085 26-397): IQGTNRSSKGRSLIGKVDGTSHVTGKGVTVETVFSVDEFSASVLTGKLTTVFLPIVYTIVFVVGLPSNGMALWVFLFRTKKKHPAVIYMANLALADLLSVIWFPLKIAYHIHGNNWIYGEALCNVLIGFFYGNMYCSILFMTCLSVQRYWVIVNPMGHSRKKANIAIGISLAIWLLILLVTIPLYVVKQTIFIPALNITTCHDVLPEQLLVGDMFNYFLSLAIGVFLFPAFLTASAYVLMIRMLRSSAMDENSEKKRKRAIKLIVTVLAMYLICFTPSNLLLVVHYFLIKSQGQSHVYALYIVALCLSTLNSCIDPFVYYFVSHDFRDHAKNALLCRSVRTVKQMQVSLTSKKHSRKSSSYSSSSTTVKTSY

## CCN1C(=O)N2Cc3cc(OC)cc(OC)c3[C@@H](C)C=C2C12CCN(Cc1cccn1C)CC2 [ER-819924-01]
SST5
  inhibition at 1 µM: 0.1%
GIPR
  inhibition at 1 µM: -14.9%
5-HT1A
  inhibition at 1 µM: -1.6%
NTR1
  inhibition at 1 µM: 0.5%
PAR2
  inhibition at 1 µM: -0.8%
GNRHR
  inhibition at 1 µM: 35.8%
CCR2B
  inhibition at 1 µM: 3.7%
CCR6
  inhibition at 1 µM: -4.9%
BLT1
  inhibition at 1 µM: 2.2%
A2B
  inhibition at 1 µM: 6.9%
NK1
  inhibition at 1 µM: 2.9%
A1
  inhibition at 1 µM: 2.2%
Prostanoid EP4; CONC. 0.1 μm
  % INHIBITION: 21%
Prostanoid EP4; CONC. 1 μm
  % INHIBITION: 71%
Prostanoid EP4; competitive radioligand binding assay
  binding selectivity for EP4 over other EP/prostanoid/leukotriene receptors: selectively bind to EP4
CCK1
  inhibition at 1 µM: 13%
CXCR2
  inhibition at 1 µM: 1.2%
FPR2
  inhibition at 1 µM: 6.9%
5-HT2A
  inhibition at 1 µM: 8.8%
ETA
  inhibition at 1 µM: 9%
5-HT1B
  inhibition at 1 µM: 3%
GPR40
  inhibition at 1 µM: -4.6%
LPA1
  inhibition at 1 µM: 8%
CYSLT1
  inhibition at 1 µM: -1.6%
OT
  inhibition at 1 µM: 4.6%
Mouse CD4+ T cells
  pIC50: 7.00 to 8.00
CB2
  inhibition at 1 µM: 9.3%
ADRB2
  inhibition at 1 µM: -2.3%
CXCR1
  inhibition at 1 µM: 3.9%
V1B
  inhibition at 1 µM: 4.7%
ADRB1
  inhibition at 1 µM: -15.3%
Prostanoid CRTH2; CONC. 0.1 μm
  % INHIBITION: 8%
Prostanoid CRTH2; CONC. 1 μm
  % INHIBITION: −5%
M1
  inhibition at 1 µM: 3.6%
S1P3
  inhibition at 1 µM: 8.9%
IP1
  inhibition at 1 µM: 9.8%
